Results taken from patent publication US10004809B2, “Precise delivery of therapeutic agents to cell mitochondria for anti-cancer therapy” (UNIVERSITY OF GEORGIA RESEARCH FOUNDATION, INC., priority 2013, dated 2018).

Experiments:
Format in all cases: cell-based, Human
MSC cells [1] = experiment: Annexin V/PI apoptosis detection by flow cytometry
Method: In order to determine whether the enhanced activity of MITO-DCA upon targeting this compound to the mitochondria of cells was due to apoptosis rather than necrosis, an ALEXA FLUOR™ 488-Annexin-V and propidium iodide (PI) cell staining in PC3 and MSC cells was carried out and data were analyzed using flow cytometry (FIG. 4B). As controls, etoposide treated cells were used as early apoptosis population and H2O2 treated cells were marked as late apoptotic or necrotic population. […] There were no late apoptotic or necrotic cells observed with these compounds.
PC3 and MSC cells were seeded at a density of 1×10^6 cells/mL on each well of a six well plate and allowed to grow overnight. Cells were treated with 50 μM Na-DCA, 150 μM TPP-DCA, and 150 μM MITO-DCA for 12 h at 37° C. As positive controls, etoposide (100 μM, incubation time: 12 h) for apoptosis and H2O2 (1 mM, incubation time: 45 min) for necrosis were used. The cells were trypsinized, repeatedly washed, and centrifuged at 1,800 RPM for 3 min, and the supernatants were discarded. Cell density was determined and cells were resuspended in 1× annexin-binding buffer to ˜1×10^6 cells/mL preparing a sufficient volume to have 100 µL per assay. To 100 μL of cell suspension, 5 μL ALEXA FLUOR™ 488 annexin V and 1 µL 100 μg/mL PI working solution were added and incubated for 15 min at room temperature. After the incubation period, 400 μL 1× annexin-binding buffer was added to each sample, samples were gently mixed keeping the samples on ice and the samples were analyzed on the flow cytometer immediately.

PC3 cells [2] = experiment: JC-1 assay of mitochondrial membrane potential (Δψm), live cell imaging; conditions: for JC-1 Green:Red fluorescence ratio: 6 h
From the text: An early indication of the initiation of cellular apoptosis is the collapse in the electrochemical gradient across the mitochondrial membrane, as measured by the change in the Δψm (Perry et al., BioTechniques 50:98-115, 2011). […] The potential-sensitive color shift is due to the concentration dependent formation of red fluorescent “J aggregates.” Mitochondrial depolarization is indicated by an increase in the green/red fluorescence intensity ratio. Live cell imaging of prostate cancer (PCa) PC3 cells treated with Na-DCA (150 μM), TPP-DCA (150 μM), or MITO-DCA (50 μM), followed by staining with JC-1, and a comparative analysis of the JC-1 green/red fluorescence ratio from PC3 cells in response to these three DCA analogues are represented in FIG. 3. […] Quantification of fluorescence intensities was carried out using ImageJ and the corrected total cell fluorescence (CTCF) values are represented as histograms (FIG. 3).
PC3 cells were cultured on a live cell imaging glass bottom dish at a density of 1×10^6 cells/mL and allowed to grow overnight at 37° C. Cells were treated with 150 μM Na-DCA, 150 μM TPP-DCA, and 50 μM MITO-DCA for 6 h at 37° C. A solution of JC-1 reagent (10 μg/mL in RPMI) was added and incubation was carried out at 37° C. for 20 min. The cells were washed 3 times with PBS, and live cell imaging was performed in phenol red free RPMI media.

MSC cells [3] = experiment: MTT cytotoxicity assay on normal cells; conditions: 72 h
Method: (§1) The cytotoxic behaviors of MITO-DCA, TPP-DCA, Na-DCA, and TPP-Tris-(OH)3 were evaluated using the MTT assay against PC3, DU145, LNCaP, and MSC cells. Cells (2000 cells/well for PC3, DU145, and MSC cells; 5000 cells/well for LNCaP) were seeded on a 96-well plate in 100 μL of desired medium and incubated for 24 h. The cells were treated with different DCA compounds and TPP-Tris-(OH)3 at varying concentrations and incubated for 72 h at 37° C. The cells were then treated with 20 μL of MTT (5 mg/mL in PBS) for 5 h. The medium was removed, the cells were lysed with 100 μL of DMSO, and the absorbance of the purple tormazan was recorded at 550 nm using a Bio-Tek Synergy HT microplate reader. Each well was performed in triplicate. All experiments were repeated three times. Cytotoxicity was expressed as mean percentage increase relative to the unexposed control±SD. Control values were set at 0% cytotoxicity or 100% cell viability. Cytotoxicity data (where appropriate) was fitted to a sigmoidal curve and a three parameters logistic model used to calculate the IC50, which is the concentration of chemotherapeutics causing 50% inhibition in comparison to untreated controls. The mean IC50 is the concentration of agent that reduces cell growth by 50% under the experimental conditions and is the average from at least three independent measurements that were reproducible and statistically significant. The IC50 values were reported at ±99% confidence intervals. This analysis was performed with GraphPad Prism (San Diego, U.S.A).

DU145 cells = experiment: MTT cytotoxicity assay; conditions: for IC50: MTT, 72 h incubation
Method: as §1

PC3 cells [4] = experiment: MTT cytotoxicity assay; conditions: for IC50: MTT, 72 h incubation
Method: as §1

LNCaP cells = experiment: MTT cytotoxicity assay; conditions: for IC50: MTT, 72 h incubation
Method: as §1

SMILES	Apoptosis (annexin V/PI) (MSC cells [1]; 50 μM)	Change in Δψm (JC-1 imaging) (PC3 cells [2]; 50 μM)	JC-1 Green:Red fluorescence ratio (PC3 cells [2]; 50 μM)	Toxicity in normal MSC cells (MSC cells [3])	Activity relative to Na-DCA (DU145 cells; DU145 cells, from IC50)	IC50 (DU145 cells)	IC50 (PC3 cells [4])	Activity relative to Na-DCA (PC3 cells [4]; PC3 cells, from IC50)	Activity relative to Na-DCA (LNCaP cells; LNCaP cells, from IC50)	IC50 (LNCaP cells)	Apoptosis (annexin V/PI) (MSC cells [1]; 150 μM)	Change in Δψm (JC-1 imaging) (PC3 cells [2]; 150 μM)	JC-1 Green:Red fluorescence ratio (PC3 cells [2]; 150 μM)	Times less active than MITO-DCA (DU145 cells; DU145 cells, from IC50)	Times less active than MITO-DCA (PC3 cells [4]; PC3 cells, from IC50)	Times less active than MITO-DCA (LNCaP cells; LNCaP cells, from IC50)
O=C(CCCCC[P+](c1ccccc1)(c1ccccc1)c1ccccc1)NC(COC(=O)C(Cl)Cl)(COC(=O)C(Cl)Cl)COC(=O)C(Cl)Cl.[Br-] [MITO-DCA]	did not undergo apoptosis	induced marked changes in Δψm	3.96±0.96	did not show any toxic effects	three orders of magnitude more activity	42 ± 2 µM	17 ± 1 µM	three orders of magnitude more active	three orders of magnitude more activity	30 ± 6 µM						
O=C(OCCC[P+](c1ccccc1)(c1ccccc1)c1ccccc1)C(Cl)Cl.[Br-] [TPP-DCA]				did not show any toxic effects		468 ± 49 µM	68 ± 1 µM			302 ± 37 µM	did not undergo apoptosis	showed red fluorescence in most cells	0.49±0.09	~10 times	~4 times	~10 times
